This is an account of results in publication PMC6474802 (Journal of natural products, 2018).

As a reminder, the IC50 is the point on the concentration scale where inhibition reaches its midpoint. High values mean weaker potency in that assay, low ones greater potency in that assay.

Targets include TRPV1 (Homo sapiens, UniProt Q8NER1); TRPV4 (Homo sapiens, UniProt Q9HBA0); TRPM8 (Homo sapiens, UniProt Q7Z2W7).
What all share (assay type): cell-based

TRPM8, sequence (Q7Z2W7 whole entry): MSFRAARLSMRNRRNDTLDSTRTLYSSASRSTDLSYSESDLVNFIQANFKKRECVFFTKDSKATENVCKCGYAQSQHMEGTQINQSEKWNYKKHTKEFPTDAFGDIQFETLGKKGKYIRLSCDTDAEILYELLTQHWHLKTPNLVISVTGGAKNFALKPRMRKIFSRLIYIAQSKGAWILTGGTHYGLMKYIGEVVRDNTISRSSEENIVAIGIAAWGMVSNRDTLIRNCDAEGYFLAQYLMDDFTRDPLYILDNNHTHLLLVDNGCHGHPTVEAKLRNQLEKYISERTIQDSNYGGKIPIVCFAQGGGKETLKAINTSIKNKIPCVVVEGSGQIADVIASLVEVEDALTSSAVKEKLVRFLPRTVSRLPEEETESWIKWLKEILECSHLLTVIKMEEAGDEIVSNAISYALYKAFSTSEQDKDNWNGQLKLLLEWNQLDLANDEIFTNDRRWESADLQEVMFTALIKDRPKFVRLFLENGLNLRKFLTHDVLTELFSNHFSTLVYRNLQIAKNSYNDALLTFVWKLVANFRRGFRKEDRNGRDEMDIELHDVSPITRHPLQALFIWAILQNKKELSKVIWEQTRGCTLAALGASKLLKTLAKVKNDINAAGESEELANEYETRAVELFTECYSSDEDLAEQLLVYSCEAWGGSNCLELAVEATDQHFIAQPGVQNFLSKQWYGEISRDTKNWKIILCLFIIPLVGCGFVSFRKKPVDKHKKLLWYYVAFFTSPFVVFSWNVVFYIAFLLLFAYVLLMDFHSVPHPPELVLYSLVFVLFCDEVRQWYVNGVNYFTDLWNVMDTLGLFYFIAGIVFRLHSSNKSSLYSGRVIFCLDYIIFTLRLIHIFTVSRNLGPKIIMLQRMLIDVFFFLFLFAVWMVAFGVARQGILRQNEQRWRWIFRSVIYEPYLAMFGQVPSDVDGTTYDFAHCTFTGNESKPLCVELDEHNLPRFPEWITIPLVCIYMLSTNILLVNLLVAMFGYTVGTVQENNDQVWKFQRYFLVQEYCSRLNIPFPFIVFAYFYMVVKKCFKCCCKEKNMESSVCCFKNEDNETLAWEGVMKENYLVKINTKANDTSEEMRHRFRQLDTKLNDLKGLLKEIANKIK
TRPV1, sequence (Q8NER1 whole entry): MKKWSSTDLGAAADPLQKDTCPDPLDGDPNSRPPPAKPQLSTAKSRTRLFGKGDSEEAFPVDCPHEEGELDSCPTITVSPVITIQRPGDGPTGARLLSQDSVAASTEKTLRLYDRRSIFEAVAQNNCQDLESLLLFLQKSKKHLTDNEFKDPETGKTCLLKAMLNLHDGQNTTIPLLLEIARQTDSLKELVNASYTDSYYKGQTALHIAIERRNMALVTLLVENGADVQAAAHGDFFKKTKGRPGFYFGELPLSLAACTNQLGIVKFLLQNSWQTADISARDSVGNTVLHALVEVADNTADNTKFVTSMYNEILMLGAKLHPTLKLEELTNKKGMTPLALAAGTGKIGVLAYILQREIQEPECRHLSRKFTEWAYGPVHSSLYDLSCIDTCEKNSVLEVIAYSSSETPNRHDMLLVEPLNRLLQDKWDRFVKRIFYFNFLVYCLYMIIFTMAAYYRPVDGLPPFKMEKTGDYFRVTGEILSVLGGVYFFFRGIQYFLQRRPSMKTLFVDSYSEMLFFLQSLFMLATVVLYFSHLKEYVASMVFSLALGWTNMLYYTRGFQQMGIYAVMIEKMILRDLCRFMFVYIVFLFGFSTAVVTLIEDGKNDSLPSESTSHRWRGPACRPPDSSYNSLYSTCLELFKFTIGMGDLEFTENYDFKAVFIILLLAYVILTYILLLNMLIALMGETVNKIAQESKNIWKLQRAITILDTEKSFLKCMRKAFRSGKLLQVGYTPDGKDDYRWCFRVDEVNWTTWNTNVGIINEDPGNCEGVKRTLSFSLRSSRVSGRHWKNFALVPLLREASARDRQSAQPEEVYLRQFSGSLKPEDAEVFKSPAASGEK
TRPV4, sequence (Q9HBA0 whole entry): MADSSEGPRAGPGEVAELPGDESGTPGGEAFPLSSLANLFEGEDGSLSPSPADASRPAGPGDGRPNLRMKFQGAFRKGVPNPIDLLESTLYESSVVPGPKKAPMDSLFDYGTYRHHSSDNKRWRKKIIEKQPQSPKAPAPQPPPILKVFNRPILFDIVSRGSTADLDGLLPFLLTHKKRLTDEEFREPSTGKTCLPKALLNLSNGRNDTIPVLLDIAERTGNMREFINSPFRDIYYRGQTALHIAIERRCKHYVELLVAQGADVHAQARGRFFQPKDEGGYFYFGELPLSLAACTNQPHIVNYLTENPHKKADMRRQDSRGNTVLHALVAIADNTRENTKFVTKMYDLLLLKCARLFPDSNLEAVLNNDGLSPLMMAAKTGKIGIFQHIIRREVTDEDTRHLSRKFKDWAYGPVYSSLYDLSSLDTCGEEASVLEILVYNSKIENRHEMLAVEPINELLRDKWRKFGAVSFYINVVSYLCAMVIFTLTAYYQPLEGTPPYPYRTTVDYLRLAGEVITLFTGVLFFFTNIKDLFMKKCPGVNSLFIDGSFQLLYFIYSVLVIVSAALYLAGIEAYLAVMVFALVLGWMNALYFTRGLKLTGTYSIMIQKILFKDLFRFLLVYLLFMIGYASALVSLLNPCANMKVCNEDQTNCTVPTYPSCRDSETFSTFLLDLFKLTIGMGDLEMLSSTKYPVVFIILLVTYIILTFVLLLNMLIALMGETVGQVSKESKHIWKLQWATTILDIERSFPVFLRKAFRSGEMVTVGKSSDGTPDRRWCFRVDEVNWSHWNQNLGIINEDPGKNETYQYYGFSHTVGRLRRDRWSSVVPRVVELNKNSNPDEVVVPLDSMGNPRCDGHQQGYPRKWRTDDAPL

On to onydecalin A [compound 1], for which the IC50 was approximately 81.6 µM at TRPV1 and approximately 45.9 µM against TRPV4.

Regarding Onydecalin D [compound 4], half-maximal inhibition against TRPM8 (IC50) was put at 61.6 µM.

Take Onydecalin B [compound 2]: the IC50 on TRPM8 is 18.5 µM.
